Assay results as given in patent publication US11098056B2, “UDP glycosyltransferase inhibitors and methods of use” (GENZYME CORPORATION, priority 2018, dated 2021).

Biological target: T1, UGT8 (Homo sapiens, UniProt Q16880)
T1 construct: host or cells: OE19 cells
T1 sequence (Q16880 21-541): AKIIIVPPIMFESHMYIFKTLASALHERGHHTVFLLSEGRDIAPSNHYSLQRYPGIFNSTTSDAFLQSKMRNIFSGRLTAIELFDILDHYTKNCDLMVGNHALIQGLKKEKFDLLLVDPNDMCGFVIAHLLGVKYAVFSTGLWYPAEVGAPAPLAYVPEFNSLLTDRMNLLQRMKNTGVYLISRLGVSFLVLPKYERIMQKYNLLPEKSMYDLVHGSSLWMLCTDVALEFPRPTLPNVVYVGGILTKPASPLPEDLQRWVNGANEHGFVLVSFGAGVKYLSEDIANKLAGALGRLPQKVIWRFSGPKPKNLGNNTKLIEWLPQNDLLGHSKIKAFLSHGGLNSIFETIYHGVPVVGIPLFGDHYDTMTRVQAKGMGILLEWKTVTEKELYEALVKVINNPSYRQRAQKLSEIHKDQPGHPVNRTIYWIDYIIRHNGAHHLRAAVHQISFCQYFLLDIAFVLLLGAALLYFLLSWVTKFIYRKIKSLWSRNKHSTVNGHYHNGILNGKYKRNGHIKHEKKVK
Experiment: In vitro sulfatide (SFT) synthesis inhibition in OE19 cells, LC-MS/MS readout
Assay type: cell-based
Details: 72 hr, sulfatide by LC-MS/MS, read-out: Potency range (IC50, In-vitro SFT)
Summary of the method: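 OE19 cells, 2,500/well, exposed to compound dose-downs in triplicate for 72 hr at 37° C (screening at 10 μM final). Sulfatide quantified by LC-MS/MS (C8 UPLC, isocratic, negative-ion MRM) with C17 SFT internal standard; IC50 from concentration-response curves.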

| Compound | IC50 |
| --- | --- |
| CNC(=O)c1c(C)sc2c(C(F)(F)F)cc(N3CCC(OC(=O)NCC4CC4)CC3)nc12 [Example 415, 1-(2-Methyl-3-(methylcarbamoyl)-7-(trifluoromethyl)thieno[3,2-b]pyridin-5-yl)piperidin-4-yl (cyclopropylmethyl)carbamate] | < 100 nM |
| CNC(=O)c1csc2c(C(F)(F)F)cc(OC3CC4(C3)CN(C(=O)O[C@@H](C)COC(F)(F)F)C4)nc12 [Example 853, (S)-1-(Trifluoromethoxy)propan-2-yl 6-((3-(methylcarbamoyl)-7-(trifluoromethyl)thieno[3,2-b]pyridin-5-yl)oxy)-2-azaspiro[3.3]heptane-2-carboxylate] | < 100 nM |
| CCNC(=O)CN1CCN(c2cc(C(F)(F)F)c3scc(C(=O)NC)c3n2)CC1 [Example 25, 5-(4-(2-(Ethylamino)-2-oxoethyl)piperazin-1-yl)-N-methyl-7-(trifluoromethyl)thieno[3,2-b]pyridine-3-carboxamide] | 100 to 1000 nM |
| CNC(=O)c1csc2c(C(F)(F)F)c(C)c(O[C@@H]3CCN(C(=O)O[C@@H](C)COC(F)(F)F)[C@H](C)C3)nc12 [Example 176, (S)-1-(Trifluoromethoxy)propan-2-yl (2R,4R)-2-methyl-4-((6-methyl-3-(methylcarbamoyl)-7-(trifluoromethyl)thieno[3,2-b]pyridin-5-yl)oxy)piperidine-1-carboxylate] | < 100 nM |
| CNC(=O)c1csc2c(C(F)(F)F)cc(N3CCC(OC(=O)N4CCn5nccc5C4)CC3)nc12 [Example 95, 1-(3-(Methylcarbamoyl)-7-(trifluoromethyl)thieno[3,2-b]pyridin-5-yl)piperidin-4-yl 6,7-dihydropyrazolo[1,5-a]pyrazine-5(4H)-carboxylate] | < 100 nM |
| CNC(=O)c1csc2c(C(F)(F)F)cc(O[C@@H]3CCN(C(=O)OCCOC(F)(F)F)[C@@H](C)C3)nc12 (racemic) [Example 369, (+/−)-trans-2-(Trifluoromethoxy)ethyl-2-methyl-4-((3-(methylcarbamoyl)-7-(trifluoromethyl)thieno[3,2-b]pyridin-5-yl)oxy)piperidine-1-carboxylate] | < 100 nM |
| CNC(=O)c1csc2c(C(F)(F)F)c(C)c(O[C@H]3C[C@@H](NC(=O)OCC4CC4)C3)nc12 [Example 218, Cyclopropylmethyl ((1S,3S)-3-((6-methyl-3-(methylcarbamoyl)-7-(trifluoromethyl)thieno[3,2-b]pyridin-5-yl)oxy)cyclobutyl)carbamate] | < 100 nM |

The next lines start with the values.

| IC50 | Compound |
| --- | --- |
| 100 to 1000 nM | CC(C)NC(=O)c1csc2c(C(F)(F)F)cc(N3CCC(NC(=O)OC(C)(C)C)C3)nc12 (stereo not drawn) [Example 642, tert-Butyl N-[1-[3-(isopropylcarbamoyl)-7-(trifluoromethyl)thieno[3,2-b]pyridin-5-yl]pyrrolidin-3-yl]carbamate] |
| < 100 nM | CNC(=O)c1csc2c(C(F)(F)F)cc(N3CCN(CC(=O)NC(C)C)C(C)(C)C3)nc12 [Example 49, 5-(4-(2-(Isopropylamino)-2-oxoethyl)-3,3-dimethylpiperazin-1-yl)-N-methyl-7-(trifluoromethyl)thieno[3,2-b]pyridine-3-carboxamide] |
| < 100 nM | CC(C)NC(=O)O[C@H]1CCN(c2cc(C(F)(F)F)c3scc(C(=O)N4CCC4)c3n2)C[C@@H]1F (racemic) [Example 441, (+/−)-trans-1-(3-(Azetidine-1-carbonyl)-7-(trifluoromethyl)thieno[3,2-b]pyridin-5-yl)-3-fluoropiperidin-4-yl isopropylcarbamate] |
| < 100 nM | CNC(=O)c1csc2c(C(F)(F)F)cc(N3CCC(OC(=O)N[C@H](C)CF)CC3)nc12 [Example 692, [1-[3-(Methylcarbamoyl)-7-(trifluoromethyl)thieno[3,2-b]pyridin-5-yl]-4-piperidyl] N-[(1R)-2-fluoro-1-methyl-ethyl]carbamate] |
| > 1000 nM | CC(C)NC(=O)c1csc2c(C(F)(F)F)cc(N3CCC(NC4CCC(C(F)(F)F)CC4)C3)nc12 (stereo not drawn) [Example 419, N-Isopropyl-7-(trifluoromethyl)-5-(3-((4-(trifluoromethyl)cyclohexyl)amino)pyrrolidin-1-yl)thieno[3,2-b]pyridine-3-carboxamide] |
